# In US10653739B2, “Medicinal ambrosia maritima extracts” (priority 2015, dated 2020):
# Key:
# [1] = system: UM-UC-15 bladder cancer cell line; experiment: MTS IC50, UM-UC-15 bladder cancer cell line; assay type: cell-based; details: 1000 cells/well
# Method: (§1) MTS was used to evaluate IC50 (drug concentration causing 50% inhibition of the desired activity) for SLs on various bladder, prostate, breast, lung and pancreatic cancer cell lines.
# (§2) The MTS test was then conducted to evaluate the different IC50 of multiple cell lines. Purification was performed to separate the organic extract of SLs into different components. Micromolar doses, instead of micrograms, as determined by the molecular weight of the different SLs, Parthenin, Ambrosin, Damsin, and Neoambrosin, were tested in vitro. Ideally, for drug treatments, micromolar weights between 10-15 are preferred.
# [2] = system: UM-UC-9 bladder cancer cell line; experiment: MTS IC50, UM-UC-9 bladder cancer cell line; assay type: cell-based; details: 1000 cells/well
# Method: as §1, §2
# [3] = system: BT-474 breast cancer cell line; experiment: MTS IC50, BT-474 breast cancer cell line; assay type: cell-based; details: Homo sapiens, individual SLs
# Method: as §1
# (§3) The IC50 of the purified SLs, Parthenin, Ambrosin, Damsin, and Neoambrosin, were also tested for MDA-MB-231 cell line (FIG. 22), MDA-MB-468 (Basal Subtype Normal) cell line (FIG. 23), and BT-474 cell line (FIG. 24), an invasive ductal carcinoma cell line (luminal subtype B).
# [4] = system: UM-UC-17 bladder cancer cell line; experiment: MTS IC50, UM-UC-17 bladder cancer cell line; assay type: cell-based; details: 1000 cells/well
# Method: as §1, §2
# [5] = system: BT-20 breast cancer cell line; experiment: MTS IC50, BT-20 breast cancer cell line; assay type: cell-based; details: Ambrosin purified from Ambrosia hispida
# Method: as §1
# (§4) Similar tests were performed with the organic extract from Ambrosia hispida.
# [6] = system: MDA-MB-231 breast cancer cells; experiment: Orthotopic MDA-MB-231 breast cancer model; assay type: in vivo, mice; details: MDA-MB-231 triple negative cell line
# Method: Additional in vivo experiments were conducted for three breast cancer cell lines that were orthotopically injected into mice. Orthotopic injection of breast cancer cells is a powerful model to study all aspects of cancer growth. One million cells of each MDA-MB-231, SUM-159 and MDA-MB-468 were injected into the mammary fat pad of mice to form tumors. Once tumors were established, the tumors were treated with the SL-containing organic extraction of Ambrosia maritima at a dose of 200 μM of total SLs/animal daily.
# FIGS. 11A-B show the histopathology of the tumor area in the mice treated with the SLs extracted from Ambrosia maritima versus control animals for the SUM-159 and MDA-MB-231 cell lines.
# Thus, these components can be purified individually from the SL organic fraction and then combined as a potential treatment.
# [7] = system: MDA-MB-468 breast cancer cell line; experiment: MTS IC50, MDA-MB-468 breast cancer cell line; assay type: cell-based; details: Homo sapiens, individual SLs
# Method: as §1, §3
# [8] = system: UM-UC-7 bladder cancer cell line; experiment: MTS IC50, UM-UC-7 bladder cancer cell line; assay type: cell-based; details: 1000 cells/well
# Method: as §1, §2
# [9] = system: UM-UC-9 (bladder) and BT-20 (breast) cancer cell line; experiment: Bromouridine sequencing of nascent transcription; assay type: cell-based; details: 3.5 hours treatment
# Method: A common method of monitoring RNA changes is by labeling new RNA with Bromouridine, then isolate the RNA to see where the new RNA was made. Bromouridine sequencing is well known in the art.
# We used this method to monitor RNA in the UM-UC-9 (bladder) and BT-20 (breast) cancer cell line to detect the level of nascent transcription on the genome after treatment with SLs. Both cell lines were treated with the whole organic fraction at one time, or purified Ambrosin from the organic fraction at different doses for 3.5 hours. The RNA was then labeled with Bromouridine for half an hour and sequenced to detect the level of nascent transcription in the genome.
# [10] = system: prostate cancer cell line; experiment: MTS IC50, prostate cancer cell line; assay type: cell-based; details: purified sub fractions of the organic extraction
# Description: as §1
# The concentration is in μmol. As expected, some of the sub fractions affected the cell line to a much greater extent to others.
# [11] = system: MDA-MB-231 breast cancer cell line; experiment: MTS IC50, MDA-MB-231 breast cancer cell line; assay type: cell-based; details: for IC50: Homo sapiens, MDA-MB-231, individual SLs, MTS
# Method: as §1
# Several TNBC cell lines were tested in vitro and were treated with serial concentrations of the extracted SLs from Ambrosia maritima to determine IC50.
# as §3, §4
Structure (SMILES),IC50 [1],IC50 ([2]; MTS),"IC50 ([2]; UM-UC-9, MTS)",IC50 [3],IC50 [4],"IC50 of purified Ambrosin compared with SL extract of Ambrosia hispida, BT-20 [5]",level of expression of HER2 and p65 in xenografted animals [6],IC50 [7],IC50 [8],"nascent transcription of genes of apoptotic pathway, reactive oxygen species pathway [9]",nascent transcription of hallmark genes related to cancer progression and proliferation [9],IC50 [10],"IC50 of purified Ambrosin compared with SL extract of Ambrosia hispida, MDA-MB-231 ([11]; Ambrosin purified from Ambrosia hispida)",IC50 [11]
"C=C1C(=O)O[C@@H]2[C@H]1CC[C@H](C)[C@@H]1C=CC(=O)[C@@]21C (single isomer, unassigned) [AMBROSIN, Ambrosin]",0.991 µM,6.25 µM,< 10 µM,2.17 µM,1.35 µM,greater IC50,significant improves,0.882 µM,4.89 µM,upregulated,transcribing them at lower level than the control,2.71 µM,greater IC50,1.02 µM
"C=C1C(=O)O[C@@H]2[C@H]1CC[C@H](C)[C@]1(O)C=CC(=O)[C@@]21C (single isomer, unassigned) [PARTHENIN, Parthenin]",4.9 µM,–,14.2 µM,8.57 µM,6.32 µM,–,–,1.23 µM,6.49 µM,–,–,4.88 µM,–,4.74 µM
"C=C1C(=O)O[C@@H]2[C@H]1CC[C@H](C)[C@@H]1CCC(=O)[C@@]21C (single isomer, unassigned) [DAMSIN, Damsin]",1.06 µM,4.73 µM,–,2.8 µM,2.86 µM,–,significant improves,0.935 µM,1.09 µM,–,–,1.16 µM,–,1.6 µM
"C=C1C(=O)O[C@@H]2[C@H]1CC[C@H](C)C1=CCC(=O)[C@]12C (single isomer, unassigned) [NEOAMBROSIN, Neoambrosin]",146 µM,–,142 µM,36.1 µM,31.8 µM,–,–,9.08 µM,120 µM,–,–,264 µM,–,22.5 µM
